Laboratory results as given in patent publication US7432386B2, “Diarylbutadiene-substituted methyltrialkylsilanes and photoprotective compositions comprised thereof” (L'Oreal, priority 2003, dated 2008).

Assay: UV absorption spectrum in ethanol
Assay type: physicochemical
Settings: for UV E1% / UV εmax: at λmax

Row | Compound | UV λmax | UV E1% | UV εmax
1 | CCOC(=O)/C(=C/C=C(c1ccccc1)c1ccccc1)C(=O)OC[Si](C)(C)C [Example 2] | 334 nm | 692 | 28 270
2 | C[Si](C)(C)COC(=O)/C(C#N)=C\C=C(c1ccccc1)c1ccccc1 [Example 3, monotrimethylsilanylmethyl ester of 2-cyano-5,5-diphenyl-2,4-pentadienoic acid] | 360 nm | 800 | 28 880
3 | C[Si](C)(C)COC(=O)C(=CC=C(c1ccccc1)c1ccccc1)C(=O)OC[Si](C)(C)C [Example 1] | 333 nm | 614 | 28 610
